Ends that are not written are not given here.
Test system: A. fumigatus conidia
Assay: BRASIL selection of CX7C phage display library on A. fumigatus conidia
Assay type: binding, Aspergillus fumigatus
Conditions: after 4 selection rounds, clones with the motif / 40 random phage clones sequenced
Protocol: (§1) To identify potential host ligands that bind on the surface of A. fumigatus conidia and hyphae, a phage display library (CX7C) for A. fumigatus conidia and hyphae binding ligands using BRASIL is screened. The Aspergillus fumigatus clinical isolate AF293 (currently being used in the Aspergillus sequencing project, provided kindly by Dr. D. Denning, Manchester, UK.) is plated on YAG plates at 37° C. for 3 days and conidia are collected. Conidia (suspensions of 10^4 conidia/ml) are incubated at 37° C. for 16-20 hours in liquid YAG medium to allow for germination to hyphae. Conidia or hyphae, collected as described earlier, were then incubated with 10^9 transducing units (TU) of CX7C phage display library (Arap et al., 2002). A phage-conidia/hyphae suspension in an upper aqueous phase is centrifuged through a non-miscible organic phase with an intermediate specific density. Upon optimized centrifugation conditions conidia or hyphae entered the lower organic phase and pellet at the bottom of the tube, carrying with them only the specifically bound phage (FIG. 10). Dibutylphtalate:Cyclohexane ratio of the organic phase is preferably 6:1. Hyphae needed 100,000 g for pelleting as compared to 10,000 g for conidia (FIG. 10). The conidia/hyphae pellet is then recovered (after freezing, FIG. 10), and the phage is rescued by infection of E. coli K91kan bacteria (FIG. 1). Amplified phage was then used for subsequent rounds of selection (FIG. 10)
(§2) Infected E. coli K91Kan were incubated overnight in LB medium with kanamycin as selection marker (70 μg/ml), tetracycline that served as inducer of phage multiplication (40 μg/ml, the phage also contains the tetracycline resistance gene tetR), and voriconazole for suppression of conidial and hyphal growth (4 μg/ml). The next day, the phage was first separated from E. coli by centrifuigation, recovered using PEG/NaCl, and finally tittrated (to 109 TU units/μl) in order to be used in subsequent selection rounds.
(§3) After 4 rounds of selection for conidia 5 rounds for hyphae, peptide-inserts of 40 random phage clones (each for conidia and hyphae) were sequenced and analyzed for peptide sequences according to enrichment and by ClustalW sequence alignment. Selected motifs were then used to search non-redundant protein databanks.

| Compound | Times identified |
| --- | --- |
| ELLRRGGS (ELRRGGS; listed as Aspergillus fumigatus) | 2/40 |
| GARASGS (listed as Aspergillus fumigatus) | 4/40 |
| GGWGPGS (listed as Aspergillus fumigatus) | 2/40 |
| IGRAPQM (listed as Aspergillus fumigatus) | 2/40 |
| LLSATPS (listed as Aspergillus fumigatus) | 8/40 |
| SLVRGGT (listed as Aspergillus fumigatus) | 2/40 |
| SSGDRTA (listed as Aspergillus fumigatus) | 2/40 |
| WGHSRDE (not fully specified (N-terminus, C-terminus, bridges); listed as Aspergillus fumigatus) [synthetic peptide used as …] | 12/40 |

Test system: A. fumigatus hyphae
Assay: BRASIL selection of CX7C phage display library on A. fumigatus hyphae
Assay type: binding, Aspergillus fumigatus
Conditions: after 5 selection rounds, clones with the motif / 40 random phage clones sequenced
Protocol: as §1, §2, §3

| Compound | Times identified |
| --- | --- |
| DLTHVSA (listed as Aspergillus fumigatus) | 1/40 |
| GGRLGPF (listed as Aspergillus fumigatus) | 2/40 |
| GTSRWLR (listed as Aspergillus fumigatus) | 1/40 |
| ISTFARG (listed as Aspergillus fumigatus) | 1/40 |
| NPGYWGN (listed as Aspergillus fumigatus) | 1/40 |
| VGVEYRT (listed as Aspergillus fumigatus) | 1/40 |
| VVGSADG (listed as Aspergillus fumigatus) | 1/40 |
| XCDSSVS (not fully specified; X: residue not identified in the source; listed as Aspergillus fumigatus) | 1/40 |

Test system: AF293 conidia
Assay: Inhibition of WGHSRDE phage binding on AF293 conidia by synthetic peptide
Design: species or system Aspergillus fumigatus
Conditions: FIG. 13; synthetic peptide 0.1, 1, 10 and 100 μM
Protocol: To validate that the CWGHSRDEC (SEQ ID NO:1) phage is mediating specific binding to AF293 conidia, the CWGHSRDEC (SEQ ID NO:) phage and the AF293 conidia are co-incubated in the presence of increasing concentrations of the CWGHSRDEC (SEQ ID NO: 1) peptide. A decrease in the amount of CWGHSRDEC (SEQ ID NO: 1) phage binding on the surface of AF293 conidia after adding the CWGHSRDEC (SEQ ID NO:1) peptide indicates the CWGHSRDEC (SEQ ID NO:1) peptide binds to the surface of AF293 conidia thus preventing the corresponding phage from binding on these sites.
Protocol: Increasing concentrations of the synthetic CWGHSRDEC (SEQ ID NO:1) peptide or a control scramble peptide (e.g., CLLSATPSC (SEQ ID NO:)) (0.1, 1, 10 and 100 μM) is incubated with 200 μl of a 5×10^8 AF293 conidia/ml solution in 1% BSA/PBS for 1 hour at room temperature and 10^8 TU of CWGHSRDEC (SEQ ID NO:1) phage is added and incubated for 2 hours at room temperature. The conidia/phage suspension is centrifuged over an organic phase for 10 min at 10,000 g. Pelleted conidia/phage is used for k91kan infection. The BRASIL method is followed as previously mentioned. A potential decrease in the phage binding on AF293 conidia as a function of the addition of the CWGHSRDEC (SEQ ID NO:1) peptide is graphed as shown in FIG. 13 (Giordano et al, 2001): […]

| Compound | inhibition of WGHSRDE phage binding on AF293 conidia |
| --- | --- |
| WGHSRDE (not fully specified (N-terminus, C-terminus, bridges); listed as Aspergillus fumigatus) [synthetic peptide used as …] | specific inhibition |

Test system: IA
Assay: not given
Conditions: Abruzzo et al., 1997; cited from earlier work

| Compound | efficacy in animal models of IA |
| --- | --- |
| CC[C@H](C)C[C@H](C)CCCCCCCCC(=O)N[C@H]1C[C@@H](O)[C@@H](NCCN)NC(=O)[C@@H]2[C@@H](O)CCN2C(=O)[C@H]([C@H](O)CCN)NC(=O)[C@H]([C@H](O)[C@@H](O)c2ccc(O)cc2)NC(=O)[C@@H]2C[C@@H](O)CN2C(=O)[C@H]([C@@H](C)O)NC1=O [CAS, Caspofungin] | shown efficacy |

Test system: Aspergillus
Assay: not given
Conditions: Espinel-Ingroff, 1998; cited from earlier work

| Compound | Aspergillus growth in vitro |
| --- | --- |
| CC[C@H](C)C[C@H](C)CCCCCCCCC(=O)N[C@H]1C[C@@H](O)[C@@H](NCCN)NC(=O)[C@@H]2[C@@H](O)CCN2C(=O)[C@H]([C@H](O)CCN)NC(=O)[C@H]([C@H](O)[C@@H](O)c2ccc(O)cc2)NC(=O)[C@@H]2C[C@@H](O)CN2C(=O)[C@H]([C@@H](C)O)NC1=O [CAS, Caspofungin] | growth reduction |

Test system: A. fumigatus hyphae
Assay: not given
Conditions: Bowman et al., 2002; cited from earlier work

| Compound | viability of growing A. fumigatus hyphae by DiBAC staining |
| --- | --- |
| CC[C@H](C)C[C@H](C)CCCCCCCCC(=O)N[C@H]1C[C@@H](O)[C@@H](NCCN)NC(=O)[C@@H]2[C@@H](O)CCN2C(=O)[C@H]([C@H](O)CCN)NC(=O)[C@H]([C@H](O)[C@@H](O)c2ccc(O)cc2)NC(=O)[C@@H]2C[C@@H](O)CN2C(=O)[C@H]([C@@H](C)O)NC1=O [CAS, Caspofungin] | kills the apical tips of hyphae |

From patent publication US20050187161A1, “Biopanning as an approach to study the pathogenesis of and produce novel treatment modalities for invasive Aspergillosis” (priority 2003, published 2005)
